Read-outs that look alike come from different tables or passages of the source.

We go through eleven compounds from patent publication US11891422B2 (priority 2018, dated 2024).

Data set [1] concerns BC-3-luc PEL cells xenograft. The data set can be described thus: PEL in vivo xenograft mouse model. The arrangement: species or system NOD/SCID mice. The following applies: 20 mg/kg intraperitoneally, 9 consecutive days. The procedure: PEL in Vivo Xenograft Mouse Model Study: […] BC3NFRen-luc #3 were injected intraperitoneally into 4-6 week-old male NOD/SCID mice. […] The tumor burden or bioluminescence (photons/s/cm^2/steradian) was monitored by live imaging and weighing, with the sacrificial endpoint determined to be a net gain or loss of 10% body weight over a week.
We next tested its antitumor activity in vivo. We injected 10×10^6 BC-3-luc PEL cells into the peritoneal cavity of NOD-SCID mice and monitored tumor burden by bioluminescence imaging.

In a further data set the test system is BC-1 cells. Description: Live cell confocal microscopy cellular uptake. It counts as in vitro ADME. As for the experimental part:
Live Cell Confocal Microscopy and Analysis: BC1 PEL cells in the exponential phase were resuspended in RPMI 1640 media supplemented with 50 μg/ml gentamicin in the absence of serum and treated with a final concentration of 0.125% DMSO or 500 nM FITC-labeled peptide at 37° C., cold or in the presence of 10 mM sodium azide. Cells were then added to 35 mm glass bottom MatTek poly-lysine coated plates (p356c-0-10C) and immunofluorescence images were captured using LSM880 confocal miscroscope with Airyscan resolution detector, spectral detector and incubation. Images were processed using Fiji software (FIG. 14).
Inhibition of the vFLIP-NEMO complex formation in KSHV-infected PEL cells requires the inhibitor to be cell permeable. […] In order to probe cellular entry mechanism, we performed cellular uptake experiments at 4° C. as well as with sodium azide poisoning to reduce ATP-mediated active transport mechanisms without affecting overall cellular viablity (Patgiri et al., Nat. Chem. Biol. 7:585-7 (2011); which is hereby incorporated by reference in its entirety).

Data set [2] is described as follows: Circular dichroism thermal denaturation. The conditions noted are these: CD spectra between 5-95° C. Type of data set: physicochemical. From the text: (§1) Data plotted represent mean±s.e.m of three replicate experiments. TR-FRET signal was normalized to DMSO control and expressed as percent inhibition. […] Data shown represent mean±s.d. of two independent experiments performed in triplicate. Data was normalized to c. (FIG. 3C) The conformation of the coiled coil mimics was investigated by circular dichroism spectroscopy in aqueous buffer. The reported values represent mean±s.e.m of two independent experiments. […] The circular dichroism spectra were collected at regular intervals between 5-95° C. Data shown represent one experiment where scans were recorded five times over the temperature range. […] Peptide degradation was probed over 24 h by HPLC. […] Cells were visualized by fluorescence microscopy after 1 hour incubation. […] Hoechst stain was used to detect the nuclei. Representative live confocal images from at least three replicate experiments are shown.
Circular Dichroism Spectroscopy: CD spectra were recorded on a Jasco J-1500 Circular Dichroism Spectrophotometer equipped with a temperature controller using 1 mm length cells and a scan speed of 4 nm/min at 298K. The spectra were averaged over 4 scans with the background subtracted to the analogous experimental conditions. […] The concentrations of each peptide were determined by the UV absorption at 280 nm.

The nature of another data set: Serum stability assay. Type of data set: in vitro ADME. The conditions noted are these: 25% fetal bovine serum in RPMI, 60 μM peptide, read-out: initial peptide remaining intact. As for the experimental part:
Time points of 30 minutes, 1 hr, 2 hr, 8 hr, and 24 hrs were analyzed in triplicate. Each reaction was started upon addition of FBS to 60 μM peptide. Reactions were quenched at time points with addition of 100% EtOH, chilled on ice for 10 minutes, and pelleted at 12,000 RPM. Supernatant was injected onto an Agilent analytical HPLC equipped with an XTerra RP18 3.5 μm 2.1×150 mm column (Part No. 186000410) and visualized at 220 nm. Integration of peak areas was used to determine percent degradation of peptides. Mass of cleaved products were determined using Matrix assisted laser desorption ion time of flight (MALDI-TOF) spectroscopy.

A further data set in a line: in vitro. The conditions noted are these: human. The procedure: (§2) Cytotoxicity of these hits was assayed using CellTiter Glo viability assay.
The subject of data set [3] is BC-3 PEL cell line. Description: CellTiter-Glo cell viability assay, BC-3. The following applies: read-out: BC-3 LC50 (μM). The procedure: Media was supplemented with 20% FBS 3 hours post-peptide treatment.
as §2

A further data set concerns BC-1 PEL cell line. The conditions noted are these: BC-1, KSHV+/EBV+; read-out: PU-H71 LC50; cited from earlier work.
Data set [4] concerns Namalwa Burkitt lymphoma cell line. Description: CellTiter-Glo cell viability assay, Namalwa. It counts as cell-based.
Data set [5] has as its system PEL cell lines (BC-1, BC-3, BCBL-1). The data set can be described thus: CellTiter-Glo cytotoxicity in panel of PEL cell lines. Type of data set: cell-based. The conditions noted are these: FIG. 5A.
A further data set has as its system BCBL-1 PEL cell line. The following applies: BCBL-1, KSHV+; read-out: PU-H71 LC50; cited from earlier work.
Data set [6] addresses T1, vFLIP/NEMO complex in vFLIP-FLAG doxycycline-inducible Namalwa cell line (Human herpesvirus 8 type P, UniProt F5HEZ4).
T1 construct: expressed in transfected cells; host or cells: Namalwa Burkitt lymphoma cells, lentivirally transduced (pLVX-TetOne-puro), doxycycline-induced
The data set can be described thus: Co-immunoprecipitation of vFLIP-FLAG and NEMO. Type of data set: cell-based. The conditions noted are these: 24 hrs treatment, increasing concentrations. As for the experimental part:
Co-Immunoprecipiation: FLAG-tagged WT vFLIP or a vFLIP NF-κB dead mutant (vFLIP^AAA(58-60)) inducible Namalwa Burkitt lymphoma cell lines were used. Expression of WT vFLIP or mutant vFLIP was attained by treating cells with 1 μg/mL doxcycline for 24 hrs. […] 4 hours post-treatment, media was supplemented with 20% FBS and treatment continued for another 24 hrs. Next day, uninduced Namalwa WT vFLIP cell line, treated Namalwa WT vFLIP expressing cell lines as well as Namalwa expressing mutant vFLIP and parental Namalwa cell lines were harvested, washed in PBS and lysed on ice for 30 minutes using CelLytic M lysis reagent (Sigma, cat. C2978) supplemented with protease inhibitor cocktail (calbiochem, cat 539134). Cells were spun down and some of supernatants was saved for input and the rest was immunoprecipitated overnight using anti-FLAG M2beads (Sigma, cat. A2220) that were pre-equilibrated with the same buffer. […]
Immunoblotting: For co-immunoprecipitation study, eluted protein lysates were separated using pre-casted 10% sodium dodecyl sulfate-polyacrylamide gel electrophoresis SDS-PAGE gel (Bio-rad). […] Secondary anti-HRP rabbit antibody was used at 1:5000 dilution (GE healthcare) and chemiluminescent signal was detected using enhanced chemiluminescence (ECL) substrate (thermo Fisher Scientific) and autoradiography. […]

Data set [7] relates to BC-3 PEL cell line. The following applies: BC-3, KSHV+; read-out: PU-H71 LC50; cited from earlier work.
In a further data set the test system is BC-2 PEL cell line. The following applies: BC-2, KSHV+/EBV+; read-out: PU-H71 LC50; cited from earlier work.
Data set [8] deals with Namalwa Burkitt lymphoma cell line. The following applies: EBV+, read-out: PU-H71 LC50; cited from earlier work.
In another data set the test system is full length NEMO. The data set can be described thus: Fluorescence polarization direct binding assay, specificity over NEMO. The conditions noted are these: FITC-labeled peptide.
Source text: as §1
The polarization experiments were performed using a DTX 880 Multimode Detector (Beckman) at 25° C. with excitation and emission wavelengths of 485 and 525 nm, respectively. Each polarization experiment was performed in a 96-well round bottom plate (Greiner) in assay buffer: Tris glycerol pluronic acid. The binding affinity (KD) values reported for each peptide are from experiments performed in triplicate. […]

T1 sequence (F5HEZ4 whole entry, one chain of several): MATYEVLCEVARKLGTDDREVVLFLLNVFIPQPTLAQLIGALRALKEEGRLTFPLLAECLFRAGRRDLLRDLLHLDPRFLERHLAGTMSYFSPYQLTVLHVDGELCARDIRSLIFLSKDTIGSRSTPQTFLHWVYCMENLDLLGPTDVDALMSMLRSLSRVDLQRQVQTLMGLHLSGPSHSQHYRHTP

For the compound `CC[C@H](C)[C@H](NC(=O)[C@H](CC(C)C)NC(=O)[C@H](CCC(=O)O)NC(=O)[C@H](CC(=O)O)NC(=O)[C@@H](NC(=O)[C@H](CCCCn1cc(COCc2cn(CCCC[C@H](NC(=O)[C@H](CC(C)C)NC(=O)[C@H](CCCNC(=N)N)NC(=O)[C@H](CCCNC(=N)N)NC(=O)[C@@H](NC(=O)[C@H](CCC(=O)NC3CCCCC3)NC(=O)[C@H](CCC(=O)O)NC(=O)[C@H](Cc3c[nH]c4ccccc34)NC(=O)[C@H](CC(C)C)NC(=O)[C@H](CCC(N)=O)NC(=O)[C@H](CCCNC(=N)N)NC(=O)[C@@H](NC(=O)[C@H](Cc3c[nH]c4ccccc34)NC(=O)[C@H](CCC(=O)O)NC(C)=O)[C@@H](C)CC)[C@@H](C)CC)C(N)=O)nn2)nn1)NC(=O)[C@H](CCCNC(=N)N)NC(=O)[C@H](Cc1ccccc1)NC(=O)[C@H](CC(C)C)NC(=O)[C@H](CCCNC(=N)N)NC(=O)[C@H](Cc1c[nH]cn1)NC(=O)[C@@H](NC(=O)[C@H](CCC(=O)O)NC(C)=O)[C@@H](C)CC)[C@@H](C)CC)C(=O)N[C@@H](CCCNC(=N)N)C(N)=O` [CHD3^NEMO], the observed toxicity result in data set [1] is “without any observed toxicity”. Further, the “cellular uptake at cold temperatures and with sodium azide” value in the data set with BC-1 cells (4° C., 10 mM sodium azide) is “reduction in cellular uptake”. Moreover, the “conformational stability (helix percentage vs temperature)” value in data set [2] is “retain a significant proportion of helix percentage at high temperatures”. In addition, the fraction remaining at 24 h, 60 μM in “Serum stability assay” is about 80%.
Regarding `CCCCC(CC)CNC(=N)NC(=N)NCCCCCCNC(=N)NC(=N)NCC(CC)CCCC` (stereo not drawn) [Compound 9], the CC50 came out at 3.8 µM in the data set “in vitro” and 3.9 µM in the data set on BC-3 PEL cell line [3].
The matching figures for `CC(=O)N1CCc2cc(C(=O)C(C)Oc3ccc(C#N)cc3Cl)ccc21` (stereo not drawn) [Compound 6]: 69.7 µM and 35.9 µM.
Turning to `O=C(C1CCCN1c1ncccn1)N1CCc2c(Cl)cccc2C1` (stereo not drawn) [Compound 7], the figures for the CC50 in the data set “in vitro” and in the data set on BC-3 PEL cell line [3] were 31.6 µM and 39.9 µM, respectively.
Regarding `Cc1cccc(-c2cccc(CNC(=O)NCCS(C)(=O)=O)c2)c1` [Compound 8], the CC50 in “in vitro” and in the data set with BC-3 PEL cell line [3] was over 100 µM each time.
`CC(C)NCCCn1c(Sc2cc3c(cc2I)OCO3)nc2c(N)ncnc21` [PU-H71]: the CC50 in the data set with BC-1 PEL cell line is 0.0369 µM; in the data set with BCBL-1 PEL cell line, 0.217 µM; with BC-3 PEL cell line [7] it was 0.0634 µM; with BC-2 PEL cell line it was 0.0271 µM; in [8] it was 0.337 µM. For the same compound, in [4], the “sensitivity of vFLIP-negative Namalwa cells” value is listed as “showed sensitivity”. Besides, the “sensitivity of PEL cell lines” value in data set [5] is “showed sensitivity”. Also, the “disruption of vFLIP/NEMO complex (NEMO pulled down by FLAG beads)” value in data set [6] was “disrupted the complex and destabilized both vFLIP and NEMO”.
As for `CN(Cc1ccc2cccnc2c1)S(=O)(=O)c1cccs1` [Compound 4], the CC50 in the data set “in vitro” and in the data set on BC-3 PEL cell line [3] was over 100 µM each time.
For the compound `Cc1cc(CNC(=O)NC2CCCC2)cc(C)c1O` [Compound 5], the CC50 in the data set “in vitro” and with BC-3 PEL cell line [3] was over 100 µM throughout.
Take `CC[C@H](C)[C@H](NC(=O)[C@H](CC(C)C)NC(=O)[C@H](CCC(=O)O)NC(=O)[C@H](CC(=O)O)NC(=O)[C@@H](NC(=O)[C@H](CCCCn1cc(COCc2cn(CCCC[C@H](NC(=O)[C@H](CC(C)C)NC(=O)[C@H](CCCNC(=N)N)NC(=O)[C@H](CCCNC(=N)N)NC(=O)[C@@H](NC(=O)[C@H](CCC(=O)NC3CCCCC3)NC(=O)[C@H](CCC(=O)O)NC(=O)[C@H](Cc3c[nH]c4ccccc34)NC(=O)[C@H](CC(C)C)NC(=O)[C@H](CCC(N)=O)NC(=O)[C@H](CCCNC(=N)N)NC(=O)[C@@H](NC(=O)[C@H](Cc3c[nH]c4ccccc34)NC(=O)[C@H](CCC(=O)O)NC(=O)CCNC(=S)Nc3ccc4c(c3)C(=O)OC43c4ccc(O)cc4Oc4cc(O)ccc43)[C@@H](C)CC)[C@@H](C)CC)C(N)=O)nn2)nn1)NC(=O)[C@H](CCCNC(=N)N)NC(=O)[C@H](Cc1ccccc1)NC(=O)[C@H](CC(C)C)NC(=O)[C@H](CCCNC(=N)N)NC(=O)[C@H](Cc1c[nH]cn1)NC(=O)[C@@H](NC(=O)[C@H](CCC(=O)O)NC(C)=O)[C@@H](C)CC)[C@@H](C)CC)C(=O)N[C@@H](CCCNC(=N)N)C(N)=O` [FITC-CHD3^NEMO]: the “binding to wild-type NEMO coiled coil” value with full length NEMO was “failed to bind wild-type NEMO coiled coil”. Further, in the data set with BC-1 cells (500 nM FITC-labeled peptide, 37° C.), the “time to enter BC-1 cells” value is at most 30 min.
On to `CCOc1ccc2nc3cc(N)ccc3c(N)c2c1` [Compound 2], for which the figures for the CC50 in the data set “in vitro” and with BC-3 PEL cell line [3] were 7.7 µM and 12.2 µM, respectively.
In the same order, the values of `c1ccc2c(c1)Nc1ccccc1S2` [Compound 3] are 63 µM and 62.7 µM.
